Source: PubChem BioAssay (NCI)
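Dose response: 5 concentrations. Exposure: 48 h. Format: 96-well plates. Endpoint: linear interpolation; highest concentration if not reached. The concentration for 50% growth inhibition is given as GI50. TGI: total growth inhibition.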

Columns and labels:
Experiment in all cases: NCI-60 cell line screen, 48 h; in the data active = GI50 below about 0.43 µM; inactive = the rest
IGROV1 ovarian = system: IGROV1 ovarian
HOP-92 NSCLC = system: HOP-92 NSCLC
MDA-MB-435 = system: MDA-MB-435
HCT-116 colon = system: HCT-116 colon
NCI-H460 lung = system: NCI-H460 lung
MOLT-4 leukemia = system: MOLT-4 leukemia
T-47D breast = system: T-47D breast
HS 578T breast = system: HS 578T breast
LOX IMVI melanoma = system: LOX IMVI melanoma
HL-60(TB) leukemia = system: HL-60(TB) leukemia
UACC-62 melanoma = system: UACC-62 melanoma
KM12 colon = system: KM12 colon
PC-3 prostate = system: PC-3 prostate
DU-145 prostate = system: DU-145 prostate
K-562 leukemia = system: K-562 leukemia
SK-MEL-5 melanoma = system: SK-MEL-5 melanoma
COLO 205 colon = system: COLO 205 colon
OVCAR-4 ovarian = system: OVCAR-4 ovarian
ACHN renal = system: ACHN renal
OVCAR-8 ovarian = system: OVCAR-8 ovarian
EKVX NSCLC = system: EKVX NSCLC
UACC-257 melanoma = system: UACC-257 melanoma
786-0 renal = system: 786-0 renal
SK-MEL-2 melanoma = system: SK-MEL-2 melanoma
SW-620 colon = system: SW-620 colon
A498 renal = system: A498 renal
SNB-19 CNS = system: SNB-19 CNS
SK-OV-3 ovarian = system: SK-OV-3 ovarian

COc1ccc(C2SCC(=O)N2NC(=O)Nc2c(C)nc3ccccn23)cc1 (stereo not given)
37.5 µM: TGI (HOP-92 NSCLC)
> 100 µM: TGI (IGROV1 ovarian) | TGI (MDA-MB-435) | TGI (NCI-H460 lung) | TGI (MOLT-4 leukemia) | TGI (HS 578T breast) | TGI (LOX IMVI melanoma) | TGI (HL-60(TB) leukemia) | TGI (UACC-62 melanoma) | TGI (KM12 colon) | TGI (PC-3 prostate) | TGI (DU-145 prostate) | TGI (K-562 leukemia) | TGI (SK-MEL-5 melanoma) | TGI (COLO 205 colon) | TGI (OVCAR-4 ovarian) | TGI (OVCAR-8 ovarian) | TGI (EKVX NSCLC) | TGI (UACC-257 melanoma) | TGI (SK-MEL-2 melanoma) | TGI (SW-620 colon)
inactive: GI50 (IGROV1 ovarian) 38.6 µM | GI50 (HOP-92 NSCLC) 16.6 µM | GI50 (MDA-MB-435) > 100 µM | GI50 (HCT-116 colon) 17.1 µM | GI50 (NCI-H460 lung) 90.5 µM | GI50 (MOLT-4 leukemia) > 100 µM | GI50 (T-47D breast) 26.4 µM | GI50 (HS 578T breast) 41.3 µM | GI50 (LOX IMVI melanoma) 27.1 µM | GI50 (HL-60(TB) leukemia) > 100 µM | GI50 (UACC-62 melanoma) 39.6 µM | GI50 (KM12 colon) > 100 µM | GI50 (PC-3 prostate) 77.2 µM | GI50 (DU-145 prostate) 44.9 µM | GI50 (K-562 leukemia) > 100 µM | GI50 (SK-MEL-5 melanoma) > 100 µM | GI50 (COLO 205 colon) > 100 µM | GI50 (OVCAR-4 ovarian) > 100 µM | GI50 (ACHN renal) 21.9 µM | GI50 (OVCAR-8 ovarian) 40.2 µM | GI50 (EKVX NSCLC) 63 µM | GI50 (UACC-257 melanoma) > 100 µM | GI50 (786-0 renal) 21.8 µM | GI50 (SK-MEL-2 melanoma) 41.8 µM | GI50 (SW-620 colon) > 100 µM | GI50 (A498 renal) 27.8 µM | GI50 (SNB-19 CNS) 21.7 µM | GI50 (SK-OV-3 ovarian) 24.5 µM
74.9 µM: TGI (T-47D breast)
42.8 µM: TGI (HCT-116 colon)
61.6 µM: TGI (786-0 renal)
60.3 µM: TGI (A498 renal)
47.3 µM: TGI (ACHN renal) | TGI (SNB-19 CNS)
